The record followed here is US8404866B2, “Substituted heterocyclic mercaptosulfonamide metalloprotease inhibitors” (Florida State University Research Foundation, priority 2008, dated 2013).

Where a name gives a salt, the structure may show the parent alone.

What all share (type): biochemical
Experiment [1] deals with T1, MMP-26 (EDM; human endometase) (Homo sapiens, UniProt Q9NRE1).
T1 sequence (Q9NRE1 90-261): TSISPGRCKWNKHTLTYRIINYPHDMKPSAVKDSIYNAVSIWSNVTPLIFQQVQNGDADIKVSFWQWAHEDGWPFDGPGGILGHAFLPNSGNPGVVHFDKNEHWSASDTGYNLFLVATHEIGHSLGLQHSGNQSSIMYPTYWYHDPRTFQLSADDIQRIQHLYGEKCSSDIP
Put plainly: Enzyme kinetic assay, inhibition of MMP-26. The conditions noted are these: read-out: Ki (value in parentheses), EDM MMP-26. The source says:
(§1) The following protocol was used to obtain the data found in the following table. Materials: The fluorescent peptide substrates for matrix metalloproteinases (MMPs) used were purchased from Bachem Chem. Co. The metal salts and Brij-35 were purchased from Fisher Scientific Inc. All other chemicals were purchased from Sigma-Aldrich Chem. Co. The sources and biochemical characterizations of multiple MMPs, including MMP-1/human fibroblast collagenase (HFC), MMP-2/human fibroblast gelatinase (HFG), MMP-8/human neutrophil collagenase (HNC), and MMP-9/human neutrophil gelatinase (HNG), MMP-7/human matrilysin (MLN), MMP-3/human fibroblast stromelysin-1 (HFS), human recombinant catalytic domain of membrane-type 1 matrix metalloproteinase (cdMT1-MMP), catalytic domain of MMP-12/metalloelastase (cdMET), and MMP-26/human endometase (EDM) were described previously (Sang, Q. X., Birkedal-Hansen, H., and Van Wart, H. E. Proteolytic and non-proteolytic activation of human neutrophil progelatinase B. Biochim. Biophys. Acta. 1995; 1251, 99-108; Sang, Q. A., Bodden, M. K., and Windsor, L. J. Activation of human progelatinase A by collagenase and matrilysin: activation of procollagenase by matrilysin. J. Protein. Chem. 1996; 15, 243-253; Li, H., Bauzon, D. E., Xu, X., Tschesche, H., Cao, J., and Sang, Q.-X. A. Immunological characterization of cell-surface and soluble forms of membrane type 1 matrix metalloproteinase in human breast cancer cells and in fibroblasts. Molec. Carcinog. 1998; 22, 84-94; Park, H. I., Ni, J., Gerkema, F. E., Liu, D., Belozerov, V. E., and Sang, Q.-X. A. Identification and characterization of human endometase (Matrix metalloproteinase-26) from endometrial tumor. J. Biol. Chem., 2000; 275, 20540-20544). The active concentrations of MMPs were determined by titration with GM6001, a tight-binding MMP inhibitor, as described previously (Park, H. I., Turk, B. E., Gerkema, F. E., Cantley, L. C., and Sang, Q.-X. A. Peptide substrate specificities and protein cleavage sites of human endometase/matrilysin-2/matrix metalloproteinase-26. J. Biol. Chem. 2002; 277, 35168-35175).
(§2) The active inhibitor concentrations were estimated by titrating the mercapto group with 5,5′-dithiobis(2-nitrobenzoic acid) (DTNB; Ellman's reagent) as described previously (Ellman, G. L. A colorimetric method for determining low concentrations of mercaptans. Arch. Biochem. Biophys. 1958; 74, 443-450; Ellman, G. L. Tissue sulfhydryl groups. Arch. Biochem. Biophys. 1959; 82, 70-77; Riddles, P. W., Blakeley, R. L., and Zerner, B. Ellman's reagent: 5,5′-dithiobis(2-nitrobenzoic acid)—a reexamination. Anal. Biochem. 1979; 94, 75-81). Briefly, the reaction of DTNB with the mercapto group produces 2-nitro-5-thiobenzoic acid (TNB). The concentration of TNB is then measured by monitoring the absorbance at 412 nm. Cysteine was used to generate the standard curve with a molar extinction coefficient of 14,000±500 M^−1 cm^−1, which is close to the value in the literature (Riddles, P. W., Blakeley, R. L., and Zerner, B. Ellman's reagent: 5,5′-dithiobis(2-nitrobenzoic acid)—a reexamination. Anal. Biochem. 1979; 94, 75-81).
(§3) The substrate Mca-PLGLDpaAR-NH2 was used to measure inhibition constants (Knight, C. G., Willenbrock. F., and Murphy, G. A novel coumarin-labelled peptide for sensitive continuous assays of the matrix metalloproteinases. FEBS Lett. 1992; 296, 263-266). Enzymatic assays were performed at 25° C. in 50 mM HEPES buffer at pH 7.5 in the presence of 10 mM CaCl2, 0.2 M NaCl, and 0.01% or 0.05% Brij-35 with substrate concentrations of 1 μM. The release of product was monitored by measuring fluorescence (excitation and emission wavelengths of 328 nm and 393 nm, respectively) with a Perkin Elmer Luminescence Spectrophotometer LS 50B connected to a temperature controlled water bath. All stock solutions of inhibitors were in dimethyl sulfoxide. […]

Experiment [2] concerns the target T2, MMP-12 (cdMET; catalytic domain of MMP-12/metalloelastase) (Homo sapiens, UniProt P39900).
T2 construct: catalytic domain of MMP-12/metalloelastase (cdMET)
Put plainly: Enzyme kinetic assay, inhibition of MMP-12. To be noted: read-out: Ki (value in parentheses), cdMET MMP-12.
Source text: as §1, §2, §3

The target in experiment [3] is T3, MMP-1 (HFC; human fibroblast collagenase) (Homo sapiens, UniProt P03956).
T3 sequence (P03956 100-469): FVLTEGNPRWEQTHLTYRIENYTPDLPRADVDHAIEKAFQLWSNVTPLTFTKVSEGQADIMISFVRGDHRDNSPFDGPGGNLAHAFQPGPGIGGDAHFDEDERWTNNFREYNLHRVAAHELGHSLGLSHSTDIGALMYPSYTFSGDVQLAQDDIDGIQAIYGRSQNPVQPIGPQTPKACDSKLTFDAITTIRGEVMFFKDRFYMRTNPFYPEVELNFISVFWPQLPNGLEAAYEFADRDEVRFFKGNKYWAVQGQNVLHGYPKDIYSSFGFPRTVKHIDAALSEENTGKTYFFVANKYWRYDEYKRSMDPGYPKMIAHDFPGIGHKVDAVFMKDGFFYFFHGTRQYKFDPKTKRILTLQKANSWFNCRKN
Put plainly: Enzyme kinetic assay, inhibition of MMP-1. To be noted: for IC50: 25° C., pH 7.5, substrate 1 μM, read-out: IC50 (value without parentheses), HFC MMP-1; for Ki: read-out: Ki (value in parentheses), HFC MMP-1.
Source text: as §1, §2, §3

For a further experiment, the target named is MMP-13 (COL-3) (Homo sapiens, UniProt P45452). Put plainly: Enzyme kinetic assay, inhibition of MMP-13. The conditions noted are these: read-out: Ki (value in parentheses), COL-3 MMP-13.
Source text: as §1, §2, §3

T2 sequence (P39900 106-263 limits assumed, species assumed): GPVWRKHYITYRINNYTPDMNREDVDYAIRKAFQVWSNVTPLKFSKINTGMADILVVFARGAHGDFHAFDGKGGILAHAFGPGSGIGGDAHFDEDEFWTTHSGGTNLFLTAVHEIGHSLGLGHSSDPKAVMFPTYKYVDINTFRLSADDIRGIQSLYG

In the case of `O=C(OCc1ccccc1)N1C[C@H](NS(=O)(=O)c2ccc(Oc3ccccc3)cc2)[C@@H](S)C1` (racemic) [Example 5, (±)-N-(Benzyloxycarbonyl)-trans-3-(4-phenoxybenzenesulfonamido)-4-mercaptopyrrolidine], the Ki – broadly, the dissociation constant of the complex between target and ligand, obtained from inhibition or displacement – in experiment [1] was 72 nM; in experiment [2] it was 720 nM; at MMP-13 (COL-3) it was 450 nM. In addition, the IC50 – broadly, the concentration at which inhibition is half-maximal – in experiment [3] was > 12500 nM.
For the compound `CC(=O)NCCCCCC(=O)N1C[C@H](NS(=O)(=O)c2ccc(-c3ccccc3)cc2)[C@@H](S)C1` (racemic) [Example 9, (±)-N-(6-Acetamidohexanoyl)-trans-3-(4-phenylbenzene-sulfonamido)-4-mercaptopyrrolidine], the Ki in experiment [1] turned out to be 270 nM; in experiment [2], 29 nM; at MMP-13 (COL-3), 47 nM. In experiment [3], the IC50 was > 6000 nM.
As for `CN([C@H]1CN(C(N)=O)C[C@@H]1S)S(=O)(=O)c1ccc(Oc2ccccc2)cc1` (racemic) [Example 4, (±)-N-Carbamoyl-trans-3-(N-methyl-4-phenoxybenzenesulfonamido)-4-mercaptopyrrolidine], the Ki in experiment [1] worked out at 19 nM; in experiment [2] it was 160 nM; in experiment [3] it was 850 nM; on MMP-13 (COL-3), 28 nM.
Consider `O=S(=O)(N[C@H]1CNC[C@@H]1S)c1ccc(Oc2ccccc2)cc1` (racemic) [Example 3, (±)-trans-3-(4-Phenoxybenzenesulfonamido)-4-mercaptopyrrolidine Hydrochloride], for which the Ki in experiment [1] was found to be 28 nM; in experiment [2], 38 nM; on MMP-13 (COL-3), 35 nM. In addition, the IC50 in experiment [3] is ~25000 nM.
`NCCCCCC(=O)N1C[C@H](NS(=O)(=O)c2ccc(Oc3ccccc3)cc2)[C@@H](S)C1` (racemic) [Example 7, (±)-N-(6-Aminohexanoyl)-trans-3-(4-phenoxybenzene-sulfonamido)-4-mercaptopyrrolidine Hydrochloride]: the Ki is 4 nM in experiment [1], 4.8 nM in experiment [2] and 2 nM on MMP-13 (COL-3). Further, the IC50 in experiment [3] is > 3000 nM.
Taken in the same sequence, the figures for `O=C(OCc1ccccc1)N1C[C@H](NS(=O)(=O)c2ccc(-c3ccccc3)cc2)[C@@H](S)C1` (racemic) [Example 6, (±)-N-(Benzyloxycarbonyl)-trans-3-(4-phenylbenzenesulfonamido)-4-mercaptopyrrolidine] were 650 nM, 710 nM, 100 nM and > 130000 nM.
Taken in the same sequence, the figures for `CC(=O)NCCCCCC(=O)N1C[C@H](NS(=O)(=O)c2ccc(Oc3ccccc3)cc2)[C@@H](S)C1` (racemic) [Example 8, (±)-N-(6-Acetamidohexanoyl)-trans-3-(4-phenoxy-benzenesulfonamido)-4-mercaptopyrrolidine] were 3 nM, 2 nM, 1.7 nM and > 6000 nM.
Take `NC(=O)N1C[C@H](NS(=O)(=O)c2ccc(Oc3ccccc3)cc2)[C@@H](S)C1` (racemic) [Example 1, (±)-N-Carbamoyl-trans-3-(4-phenoxybenzenesulfonamido)-4-mercaptopyrrolidine]: the Ki is 32 nM in experiment [1], 250 nM in experiment [2], 4100 nM in experiment [3] and 50 nM on MMP-13 (COL-3).
Taken in the same sequence, the figures for `O=C(NCCN1C(=O)c2ccccc2C1=O)N1C[C@H](NS(=O)(=O)c2ccc(Oc3ccccc3)cc2)[C@@H](S)C1` (racemic) [Example 2, (±)-N-(2-Phthalimidoethylaminocarbonyl)-trans-3-(4-phenoxybenzenesulfonamido)-4-mercaptopyrrolidine] were 41 nM, 2 nM, 2800 nM and 27 nM.
